Laboratory results as given in PubChem BioAssay AID248 (DTP/NCI, 2004).
Inconclusive results and toxic doses are left out. Rule as the data show it: active = T/C of 150% or more; inactive = T/C below 125%.

Test system: L1210 leukemia ip in BDF1 mice, survival T/C
Experiment: NCI In Vivo Anticancer Drug Screen. Data for tumor model L1210 Leukemia (intraperitoneal) in B6D2F1 (BDF1) mice
Settings: endpoint: mean survival time, higher = longer survival
Method in brief: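 Transplantable tumor model; survival measured in treated vs vehicle control mice. Value = treated/control.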

[1] = dose: 100.0 mg/kg/injection, schedule: Q01DX001 (ip), vehicle: saline
[2] = dose: 200.0 mg/kg/injection, schedule: Q01DX001 (ip), vehicle: saline
[3] = dose: 100.0 mg/kg/injection, schedule: Q04DX003 (ip), vehicle: Klucel (hydroxypropylcellulose) (HPC)
[4] = dose: 200.0 mg/kg/injection, schedule: Q04DX003 (ip), vehicle: Klucel (hydroxypropylcellulose) (HPC)
[5] = dose: 400.0 mg/kg/injection, schedule: Q04DX003 (ip), vehicle: Klucel (hydroxypropylcellulose) (HPC)
[6] = dose: 100.0 mg/kg/injection, schedule: Q01DX009 (ip), vehicle: Klucel (hydroxypropylcellulose) (HPC)
[7] = dose: 200.0 mg/kg/injection, schedule: Q01DX009 (ip), vehicle: Klucel (hydroxypropylcellulose) (HPC)
[8] = dose: 50.0 mg/kg/injection, schedule: Q01DX009 (ip), vehicle: Klucel (hydroxypropylcellulose) (HPC)

Measured: T/C

C=CN1CCCC1=O
inactive: dose: 100.0 mg/kg/injection, schedule: Q01DX001 (ip), vehicle: acetone 95 % of control | [1] 97 % of control | dose: 100.0 mg/kg/injection, schedule: Q04DX002 (ip), vehicle: saline 103 % of control | dose: 100.0 mg/kg/injection, schedule: Q04DX003 (ip), vehicle: saline with Tween-80 100 % of control | dose: 200.0 mg/kg/injection, schedule: Q01DX001 (ip), vehicle: acetone 95 % of control | [2] 92 % of control | dose: 200.0 mg/kg/injection, schedule: Q04DX002 (ip), vehicle: saline 103 % of control | dose: 200.0 mg/kg/injection, schedule: Q04DX003 (ip), vehicle: saline with Tween-80 92 % of control | dose: 400.0 mg/kg/injection, schedule: Q01DX001 (ip), vehicle: acetone 93 % of control | dose: 400.0 mg/kg/injection, schedule: Q04DX002 (ip), vehicle: saline 103 % of control | dose: 400.0 mg/kg/injection, schedule: Q04DX003 (ip), vehicle: saline with Tween-80 92 % of control | dose: 600.0 mg/kg/injection, schedule: Q01DX001 (ip), vehicle: saline 100 % of control | dose: 800.0 mg/kg/injection, schedule: Q01DX001 (ip), vehicle: saline 100 % of control | dose: 1000.0 mg/kg/injection, schedule: Q01DX001 (ip), vehicle: saline 106 % of control | dose: 1200.0 mg/kg/injection, schedule: Q01DX001 (ip), vehicle: saline 108 % of control | dose: 1.9 grams/kg/injection, schedule: Q01DX001 (iv), vehicle: saline 98 % of control | dose: 1.9 grams/kg/injection, schedule: Q01DX005 (iv), vehicle: saline 97 % of control | dose: 1.9 grams/kg/injection, schedule: Q04DX003 (iv), vehicle: saline 97 % of control | dose: 3.8 grams/kg/injection, schedule: Q01DX001 (ip), vehicle: saline 90 % of control | dose: 3.8 grams/kg/injection, schedule: Q01DX001 (iv), vehicle: saline 97 % of control | dose: 3.8 grams/kg/injection, schedule: Q01DX005 (ip), vehicle: saline 100 % of control | dose: 3.8 grams/kg/injection, schedule: Q01DX005 (iv), vehicle: saline 96 % of control | dose: 3.8 grams/kg/injection, schedule: Q01DX009 (ip), vehicle: saline 91 % of control | dose: 3.8 grams/kg/injection, schedule: Q03HX008 (ip), vehicle: saline 97 % of control | dose: 3.8 grams/kg/injection, schedule: Q03HX016 (ip), vehicle: saline 98 % of control | dose: 3.8 grams/kg/injection, schedule: Q03HX024 (ip), vehicle: saline 101 % of control | dose: 3.8 grams/kg/injection, schedule: Q04DX003 (ip), vehicle: saline 101 % of control | dose: 3.8 grams/kg/injection, schedule: Q04DX003 (iv), vehicle: saline 94 % of control | dose: 3.8 grams/kg/injection, schedule: Q08DX002 (ip), vehicle: saline 97 % of control | dose: 7.5 grams/kg/injection, schedule: Q01DX001 (ip), vehicle: saline 93 % of control | dose: 7.5 grams/kg/injection, schedule: Q01DX001 (iv), vehicle: saline 97 % of control | dose: 7.5 grams/kg/injection, schedule: Q01DX005 (ip), vehicle: saline 103 % of control | dose: 7.5 grams/kg/injection, schedule: Q01DX005 (iv), vehicle: saline 93 % of control | dose: 7.5 grams/kg/injection, schedule: Q01DX009 (ip), vehicle: saline 97 % of control | dose: 7.5 grams/kg/injection, schedule: Q03HX008 (ip), vehicle: saline 96 % of control | dose: 7.5 grams/kg/injection, schedule: Q03HX016 (ip), vehicle: saline 95 % of control | dose: 7.5 grams/kg/injection, schedule: Q03HX024 (ip), vehicle: saline 103 % of control | dose: 7.5 grams/kg/injection, schedule: Q04DX003 (ip), vehicle: saline 98 % of control | dose: 7.5 grams/kg/injection, schedule: Q04DX003 (iv), vehicle: saline 92 % of control | dose: 7.5 grams/kg/injection, schedule: Q08DX002 (ip), vehicle: saline 98 % of control | dose: 15.0 grams/kg/injection, schedule: Q01DX001 (ip), vehicle: saline 88 % of control | dose: 15.0 grams/kg/injection, schedule: Q01DX005 (ip), vehicle: saline 102 % of control | dose: 15.0 grams/kg/injection, schedule: Q01DX009 (ip), vehicle: saline 96 % of control | dose: 15.0 grams/kg/injection, schedule: Q04DX003 (ip), vehicle: saline 95 % of control | dose: 15.0 grams/kg/injection, schedule: Q08DX002 (ip), vehicle: saline 94 % of control

ClC1=C(Cl)C2(Cl)CC1(Cl)C1OC12 (stereo not drawn)
inactive: dose: 12.5 mg/kg/injection, schedule: Q01DX009 (ip), vehicle: saline with Tween-80 104 % of control | dose: 25.0 mg/kg/injection, schedule: Q01DX009 (ip), vehicle: saline with Tween-80 104 % of control | dose: 50.0 mg/kg/injection, schedule: Q01DX009 (ip), vehicle: saline with Tween-80 96 % of control

C1CNCOC1
inactive: dose: 100.0 mg/kg/injection, schedule: Q04DX003 (ip), vehicle: saline 105 % of control | dose: 200.0 mg/kg/injection, schedule: Q04DX003 (ip), vehicle: saline 111 % of control

O=C(COc1ccc(Cl)c(Cl)c1)Nc1cccnc1
inactive: dose: 75.0 mg/kg/injection, schedule: Q01DX009 (ip), vehicle: Klucel (hydroxypropylcellulose) (HPC) 104 % of control | dose: 150.0 mg/kg/injection, schedule: Q01DX009 (ip), vehicle: Klucel (hydroxypropylcellulose) (HPC) 96 % of control | dose: 300.0 mg/kg/injection, schedule: Q01DX009 (ip), vehicle: Klucel (hydroxypropylcellulose) (HPC) 101 % of control

CC(=O)OCC1OC(OC(C)=O)C(NC(=O)N(C)c2ccccc2)C(OC(C)=O)C1OC(C)=O (stereo not drawn)
inactive: [3] 105 % of control | [4] 105 % of control | [5] 105 % of control

Cc1cc(Cl)ccc1OCC(=O)Oc1c(Cl)c(Cl)c(Cl)c(Cl)c1Cl
inactive: dose: 100.0 mg/kg/injection, schedule: Q04DX002 (ip), vehicle: Klucel (hydroxypropylcellulose) (HPC) 93 % of control | dose: 200.0 mg/kg/injection, schedule: Q04DX002 (ip), vehicle: Klucel (hydroxypropylcellulose) (HPC) 112 % of control

Cc1ccc(C)c(C2NC(=O)c3ccccc3N2)c1 (stereo not drawn)
inactive: [6] 102 % of control | [3] 106 % of control | [7] 106 % of control | [4] 90 % of control | dose: 400.0 mg/kg/injection, schedule: Q01DX009 (ip), vehicle: Klucel (hydroxypropylcellulose) (HPC) 103 % of control | [5] 93 % of control

COC(OC)C(Br)(Br)Br
inactive: [1] 96 % of control | [2] 106 % of control | dose: 400.0 mg/kg/injection, schedule: Q01DX001 (ip), vehicle: saline 100 % of control

Nc1nc(=S)c2nc(CNc3ccc(C(=O)NC(CCC(=O)O)C(=O)O)cc3)nnc2[nH]1 (stereo not drawn)
inactive: dose: 100.0 mg/kg/injection, schedule: Q01DX001 (ip), vehicle: saline with Tween-80 103 % of control | dose: 200.0 mg/kg/injection, schedule: Q01DX001 (ip), vehicle: saline with Tween-80 105 % of control

CCOC(=O)C(N=Nc1ccccc1)C(C)=O (stereo not drawn)
inactive: dose: 12.5 mg/kg/injection, schedule: Q01DX009 (ip), vehicle: Klucel (hydroxypropylcellulose) (HPC) 100 % of control | dose: 25.0 mg/kg/injection, schedule: Q01DX009 (ip), vehicle: Klucel (hydroxypropylcellulose) (HPC) 97 % of control | [8] 94 % of control | [3] 103 % of control | [4] 100 % of control | [5] 88 % of control

CCCN(CCC)N=Nc1ccccc1-c1nc(N)c2ccccc2n1
inactive: [3] 106 % of control | [4] 98 % of control | [5] 101 % of control

Cc1c(Cl)cccc1NC(=O)c1c(Cl)c(Cl)c(Cl)c(Cl)c1C(=O)O
inactive: [6] 102 % of control | [7] 103 % of control

Nc1nc2ccccc2c(Cl)c1Cl
inactive: [8] 86 % of control | [6] 91 % of control | [7] 91 % of control
